Source: the COVID Moonshot data (paper PMC11187573), “Identification of SARS-CoV-2 Mpro inhibitors through deep reinforcement learning for de novo drug design and computational chemistry approaches” (RSC Medicinal Chemistry, 2024)

Legend:
[1] = target: SARS-CoV-2 Main Protease (SARS-CoV-2) (UniProt P0DTD1)
[2] = target: SARS-CoV-2 Main Protease (SARS-CoV-2) (UniProt P0DTD1); remark: listed apart in the source

Compound | inhibition ([1]; 50.0 µM) [%] | relative solubility at 20 uM | relative solubility at 100 uM | inhibition ([2]; 20.0 µM) [%] | inhibition ([2]; 50.0 µM) [%] | inhibition ([1]; 20.0 µM) [%] | IC50 [1] [µM] | IC50 [2] [µM]
CCCN(C(=O)Cc1cccc(Cl)c1)c1cccnc1 | 36.2 | 1 | 1 | 2.28 | 3.25 |  |  | 
C=CC(=O)N1CCN(S(=O)(=O)c2ccccc2-c2ccc(Nc3ccc(C#N)cn3)cc2)CC1 | 0 | 0.75 | 0.61 | -11.3 | -6.3 |  |  | 
COc1ccc(-c2cccc(S(=O)(=O)N3CCN(C(C)=O)CC3)c2)cc1 | 0 | 0.95 | 0.93 | -3.55 | 2.93 |  |  | 
C=CC(=O)N(c1ccc(C(C)(C)CC)cc1)C(C(=O)Nc1ccc(Br)cc1)c1cccnc1 (stereo not given) |  | 0.91 | 0.66 | 8.32 | 18.4 | 0 |  | 
C=CC(=O)N(c1ccc(C(C)(C)C)cc1)C(C(=O)NCCCOC)c1cccnc1 (stereo not given) | 39.5 | 0.99 | 0.98 | 3.35 | 19.4 | 12.2 |  | 
O=C(N/N=C/c1c[nH]cn1)C1CCCCC1 | -16.3 | 1.01 | 1 | -3.95 | 2.16 |  |  | 
C=CC(=O)N(c1ccc(C(C)(C)C)cc1)C(C(=O)NCCC(=O)OCC)c1cccnc1 (stereo not given) | 43.7 | 0.99 | 0.97 | 27.8 | 46.3 | 12.3 |  | 
O=C(Cc1c[nH]c2ncccc12)NCc1cccc(Cl)c1 |  | 1 | 0.96 | 7.73 | 9.03 | 1.98 |  | 
C=CC(=O)N(c1ccc(C(C)(C)C)cc1)C(C(=O)NC(C)CC)c1cccnc1 (stereo not given) | 23.9 | 1 | 1 | 16.8 | 32.5 | 3.71 |  | 
O=C(Cc1cccc(Cl)c1)Nn1cnnc1 | 0 | 1 | 1 | -9.88 | -21.6 |  |  | 
O=C1[C@H](Nc2nccn3cnnc23)CCN1c1cccc(Cl)c1 (stereo in doubt) | 0 | 1 | 0.98 | 3.55 | 5.29 |  |  | 
COc1cccc(NC(=O)Nc2cccc(C#N)c2)c1 | 2.48 | 0.96 | 0.94 | 5.11 | 9.79 | 0 |  | 
Cc1ccnc(C)c1NC(=O)C(C)c1ccc(F)c(F)c1 (stereo not given) | 0 | 1 | 1 | -0.411 | -2.87 |  |  | 
Cc1ccncc1NC(=O)c1cccc(NC(=O)Nc2cccnc2)c1 | 1.27 | 1 | 1 |  | -23.3 | 2.38 |  | 
O=C(NCc1cccnn1)NC(Cc1ccccc1)c1cccs1 (stereo not given) | 0 | 1 | 1 |  | 13.9 | 0 |  | 
O=C(C1CCN(c2ccncc2)CC1)N1CCS(=O)(=O)CC1 | 42.9 | 1 | 1 |  | -27.4 | 19.7 |  | 
O=C(c1cc2sccc2s1)N1CCOC(CN2CCOCC2)C1 (stereo not given) | 2.34 | 1 | 0.99 | 4.6 | 7.85 |  |  | 
O=C(CCn1ccnn1)NC(CN1CCOCC1)c1ccccc1 (stereo not given) | 0 | 1 | 1 | 2.31 | 5.19 | 0 |  | 
CC1CCCC(OCc2cccc(NC(=O)NC(C)c3ccn[nH]3)c2)C1 (stereo not given) | 0 | 1 | 0.85 |  | -40.1 | 0 |  | 
COc1ccc2nc(C)cc(C(=O)NN)c2c1 | 0 | 1 | 1 |  | 22.2 | 0 |  | 
NS(=O)(=O)CCc1ccccc1CN1CCN(C(=O)CCl)CC1 | 100 | 1 | 1 | 101 | 103 |  | 0.834 | 
Cc1ccncc1NC(=O)Cn1ccc2ccc(Cl)cc21 | 77.4 | 0.99 | 0.98 | 30.6 | 27 |  | 20 | 
Cc1ccc(NC(=O)Cc2cc3cccnc3[nH]2)s1 | 7.42 | 1 | 0.96 | 23.7 | 8.28 |  |  | 
N#Cc1ccc(S(=O)(=O)N2CCN(C(=O)c3cc(=O)[nH]c4ccc(F)cc34)CC2)cc1 | 33.7 | 0.98 | 0.98 | 2.67 | 10.4 |  |  | 
Cc1ccncc1NC(=O)Cc1cccc(OC(F)(F)F)c1 | 12.6 | 0.98 | 0.98 | -3.16 | -22.5 |  |  | 
Cc1cccc(CC2CCN(C(=O)CCl)CC2)c1 | 87.1 | 1 | 1 | 62.9 | 90.5 |  | 4.49 | 

Compound | inhibition ([1]; 50.0 µM) [%] | relative solubility at 20 uM | relative solubility at 100 uM | inhibition ([2]; 20.0 µM) [%] | inhibition ([2]; 50.0 µM) [%] | inhibition ([1]; 20.0 µM) [%] | IC50 [1] [µM] | IC50 [2] [µM]
C=CC(=O)N(c1ccc(C2(C)CC2)cc1)C(C(=O)NC(C)(C)C)c1cccnc1 (stereo not given) | 10.1 | 1 | 1 |  | -13.5 | 0 |  | 
CC1(C)Cc2cccc(OCCNC(=O)c3cc(=O)[nH]c4ccc(Cl)cc34)c2O1 | 18.7 | 0.97 | 0.91 | 5.99 | 28.8 |  |  | 
O=C(CCl)N1CCN(S(=O)(=O)c2ccsc2)CC1 |  | 1 | 1 | 78.6 | 73.7 | 96.4 | 0.484 | 1.63
O=C(CNc1c(-c2ccccc2)nc2ccccn12)N/N=C/c1cccc2ccccc12 | 7.53 | 0.5 | 0.5 | 13.8 | 17.8 |  |  | 
O=C(CCl)N1CCN(C(c2ccccc2)C2CCOCC2)CC1 (stereo not given) | 84.8 | 1 | 0.99 | 80.8 | 103 |  | 1.69 | 20.7
Cn1cnnc1NC(=O)Cc1cccc(Cl)c1 | -10.5 | 1.01 | 1 | 5.99 | -26 |  |  | 
O=C(CCl)N1CCOc2cccc(-c3cccnc3)c21 | -5.89 | 1 | 1 | 1.76 | 7.44 |  |  | 
Cc1ccncc1NC(=O)[C@@H]1CNC(=O)O1 (stereo in doubt) | 8.86 | 1 | 1 | 1.35 | 1.36 |  |  | 
Cc1cc(C(C)(C)C)ccc1OC[C@H](O)Cn1cnccc1=O (stereo in doubt) | 0 | 1.01 | 1 | -3.67 | 16.5 |  |  | 
O=C(NCc1cccnn1)Nc1cccc(OCCN2CCOCC2)c1 | 0 | 1 | 0.99 | 1.16 | 1.22 | 0 |  | 
CCN(Cc1cccc(-c2ccncc2)c1)C(=O)Cc1noc2ccccc12 |  | 0.98 | 0.85 | -25.4 | -15.8 | 0 |  | 
C=CC(=O)N(c1ccc(C(C)(C)CC)cc1)C(C(=O)Nc1ccc(Cl)cc1)c1cccnc1 (stereo not given) |  | 0.82 | 0.68 | 16.5 | 22.7 | 11.3 |  | 
Sc1nc2ccccc2c2nc(CCc3ccccc3)nn12 | 0 | 0.93 | 0.89 | -0.837 | -6.97 |  |  | 
O=C(Nc1ccc([N+](=O)[O-])cc1Cl)c1cccc(Cl)c1 |  | 0.76 | 0.57 | -10.8 | -11.4 | 1.31 |  | 
COc1ncccc1N(C)C(=O)C1CCOc2ccc(Cl)cc21 (stereo not given) | 0 | 1 | 0.98 | -2.61 | 2.54 |  |  | 
CN(C)c1ncccc1N(C)C(=O)C1CCOc2ccc(Cl)cc21 (stereo not given) | 0 | 1 | 0.99 | 1.42 | -4.96 |  |  | 
C=CC(=O)N(c1ccc(C(C)OC)cc1)C(C(=O)Nc1ccc(Cl)cc1)c1cccnc1 (stereo not given) |  | 0.84 | 0.76 | 12.3 | 26.1 | 0 |  | 
Cc1nc(-c2cccc(CNC(=O)Nc3cccc(CN4CCCC4=O)c3)c2)n[nH]1 | 0 | 0.98 | 0.98 | 2.12 | 2.95 |  |  | 
Cc1ccncc1NC(=O)C1(c2cccc(Cl)c2)CC1 | 43.3 | 1.01 | 1 | 38.4 | 61.6 |  |  | 
Cc1ccncc1NC(=O)CC(C)C(C)C (stereo not given) | 6.99 | 1 | 1 | -5.58 | 29.2 |  |  | 
Cc1ccncc1NC(=O)Cc1cccc(Br)c1 | 98.3 | 1.01 | 1 | 56.2 | 77.7 |  | 15.9 | 
O=C(Cn1nnc2ccccc21)N(Cc1ccsc1)c1ccc(-c2ccccc2)cc1 | 36.1 | 0.64 | 0.5 | 30.4 | 39.1 |  |  | 
O=C(C(F)Cl)N1CCCC(c2nc3ccccc3s2)C1 (stereo not given) | 0 | 0.99 | 0.99 | 7.1 | 16.2 | 0 |  | 
CNC(=O)OC1CCN(C(=O)c2ccncc2)CC1 | 2.15 | 1 | 1 |  | -25.3 | 0.65 |  | 
Cc1cc(Br)cc2c1N(CCBr)C(=O)C2=O | 95.6 | 1 | 1 | -3.94 | -4.22 |  | 16.7 | 
O=C(Nc1cccnc1)Nc1ccc(Cl)s1 | 35.7 | 0.99 | 0.95 | 8.85 | 23.7 | 0 |  | 

Compound | inhibition ([1]; 50.0 µM) [%] | relative solubility at 20 uM | relative solubility at 100 uM | inhibition ([2]; 20.0 µM) [%] | inhibition ([2]; 50.0 µM) [%] | inhibition ([1]; 20.0 µM) [%] | IC50 [1] [µM] | IC50 [2] [µM]
COC(=O)c1sc(NS(=O)(=O)c2ccc(CF)cc2)nc1C(C)(C)C | 0 | 1 | 0.99 |  | -7.77 | 0 |  | 
COC(=O)C(c1ccccc1Cl)N1CCc2sccc2C1 (stereo not given) | 0 | 0.97 | 0.79 | -3.49 | 4.1 |  |  | 
CC(C(=O)O)c1ccc2c(c1)[nH]c1ccc(Cl)cc12 (stereo not given) |  | 1 | 0.98 | -0.548 | 3.97 | 0 |  | 
CCOC(=O)c1nc(S(C)(=O)=O)ncc1Cl | 100 | 0.99 | 0.99 | 96.9 | 98.5 |  | 1.04 | 
Cc1ccncc1NC(=O)CCc1ccn[nH]1 | -1.76 | 1 | 1 | 18.9 | -26.3 |  |  | 
O=C1/C(=C/c2ccc(O)cc2)c2ccccc2C(=O)N1Cc1ccc2c(c1)OCO2 | 20.1 | 0.62 | 0.48 | 6.21 | -3.72 |  |  | 
O=C1Nc2ccc(Br)cc2C1=O | 66.1 | 1 | 0.99 | -2.12 | -1.05 |  | 30.3 | 
C=CC(=O)N(c1ccc(C2(C)CC2)cc1)C(C(=O)Nc1ccc(Cl)cc1)c1cccnc1 (stereo not given) | -0.67 | 0.95 | 0.56 |  | -9.81 | 0 |  | 
O=C1NC(c2cccnc2)C(=O)N1c1cccc(Cl)c1 (stereo not given) | 69.6 | 0.85 | 0.91 | 18.1 | 33.9 |  | 57.8 | 
C=CC(=O)N(c1ccc(C(F)(F)F)cc1)C(C(=O)NCCc1cccc(F)c1)c1cncc(Cl)c1 (stereo not given) | 82.1 | 0.94 | 0.28 | 50.2 | 68.2 |  | 4.84 | 
O=C(Cc1cccnc1)Nc1cccc(OC2CC(=O)N2)c1 (stereo not given) | 26.4 | 0.97 | 0.99 | 39.6 | 71.8 |  |  | 
O=C1C(=O)N(Cc2ccc(Br)cc2)c2c(Br)cccc21 | 100 | 0.99 | 0.97 | 1.5 | -1.15 |  | 0.485 | 
Cc1cc(C)cc(CS(=O)(=O)N[C@@]23COC[C@@H]2C3)c1 (stereo in doubt) | 0 | 1 | 1 | 6.03 | -9.38 |  |  | 
Cc1ccn(CC(=O)NCc2nccn2CCc2ccccc2)c(=O)c1 | 0 | 1 | 1 | -14.1 | -2.52 |  |  | 
Cc1ccncc1NC(=O)CCc1nc2cc(Cl)ccc2o1 | 0 | 0.99 | 1 | 10.4 | 13.1 |  |  | 
COc1ccc2[nH]cc(CCNS(C)(=O)=O)c2c1 |  | 0.92 | 0.86 | -4.19 | -4.39 | 0 |  | 
Cc1ccncc1NC(=O)CN(C)S(=O)(=O)c1cccc2cccnc12 | -0.449 | 0.99 | 1 | 43.4 | 17.3 | 0 |  | 
O=C(NCCNc1ccnc2cc(Cl)ccc12)Nc1ccc(F)cc1 | 0 | 0.99 | 0.94 | 20.4 | 29.5 | 0 |  | 
NC(=O)C1CCN(c2nnc(C3CCC(=O)N3)n2CCc2cc(F)cc(F)c2)CC1 (stereo not given) | 0 | 1 | 1 | 1.27 | 3.83 |  |  | 
C=CC(=O)N(c1ccc2ncsc2c1)C(C(=O)Nc1ccc(OC)cc1)c1cccnc1 (stereo not given) |  | 0.92 | 0.87 | 4.02 | 15.4 | 0 |  | 
COc1ccc(S(=O)(=O)N2CCN(C(=O)c3cc(=O)[nH]c4cc(F)ccc34)CC2)cc1 | 0 | 0.87 | 0.9 | 5.98 | -3.27 |  |  | 
Cc1ccc(C)c(NC(=O)[C@H]2CNC(=O)C2)c1 (stereo in doubt) | 0 | 0.98 | 0.98 | -14.9 | -9.38 |  |  | 
C=CC(=O)N(c1ccc(C(C)(C)C)cc1)C(C(=O)Nc1cccc(F)c1C)c1cccnc1 (stereo not given) | 0 | 1 | 0.98 |  | -14.8 | 0 |  | 
O=C(Nc1cnccc1CO)[C@@H]1COc2ccc(Cl)cc21 (stereo in doubt) | 58.6 | 1.01 | 1 | 46.1 | 73.1 |  | 18.4 | 
